Holding throughout (type): functional
The test system of assay [1] is HL-60. The experiment in a line: Cell growth-inhibitory activity toward human leukemia cell line HL60 at 10 uM concentration.
For assay [2], the system named is HL-60. The experiment in a line: Cell growth-inhibitory activity toward human leukemia cell line HL60 at 3 uM concentration.
The species entered for another assay is Sus scrofa. Put plainly: Inhibitory activity against tubulin polymerization at 20 uM.
The test system of assay [3] is HL-60. Put plainly: Cell growth-inhibitory activity toward human leukemia cell line HL60 at 6 uM concentration.

Where only a bound is given, the exact number is not on record here.

For `CC(C)c1cccc(C(C)C)c1N1C(=O)c2ccc(O)cc2C1=O`, the inhibition (as a rule, the change of the read-out against control, counted positive when it falls) at 10 µM with HL-60 [1] is ~100%. In the assay on HL-60 [2], this compound showed an inhibition at 3 µM of 6%. Besides, the Inhibition (usually the share of the control response that was lost under treatment) in the assay filed under Sus scrofa was <83%. In the assay on HL-60 [3], this compound had an inhibition at 6 µM of 72%.

As for `CC(C)c1cccc(C(C)C)c1N1C(=O)c2cccc([N+](=O)[O-])c2C1=O`, the inhibition at 10 µM in the assay with HL-60 [1] was ~0%. Moreover, in the assay on HL-60 [2], the inhibition at 3 µM is ~0%. The Inhibition in the assay listed under Sus scrofa is listed as <10%. In the assay on HL-60 [3], the inhibition at 6 µM is ~0%.

On to `O=C1CCC(N2C(=O)c3ccccc3C2=O)C(=O)N1` (stereo not given) [THALIDOMIDE], for which the Inhibition in the assay filed under Sus scrofa is reported as <10%.

As to `Cc1cccc(C)c1N1C(=O)c2cccc(O)c2C1=O`, in the assay with HL-60 [1], the inhibition at 10 µM was ~0%. Further, in the assay with HL-60 [2], the inhibition at 3 µM was ~0%. In addition, the inhibition at 6 µM in the assay with HL-60 [3] is ~0%.

`O=C1c2ccc(O)cc2C(=O)N1c1ccccc1` had an inhibition at 10 µM in the assay with HL-60 [1] of 34%. Also, the inhibition at 3 µM in the assay with HL-60 [2] is ~0%. The Inhibition in the assay listed under Sus scrofa was <10%. The inhibition at 6 µM in the assay on HL-60 [3] was < 5%.

Take `CC(C)c1cccc(C(C)C)c1N1C(=O)c2ccccc2C1=O`: the inhibition at 10 µM in the assay on HL-60 [1] was < 5%. The inhibition at 3 µM in the assay with HL-60 [2] is ~0%. Also, the Inhibition in the assay filed under Sus scrofa came out at 7%. In addition, the inhibition at 6 µM in the assay on HL-60 [3] was ~0%.

With `O=C1c2cccc(O)c2C(=O)N1c1ccccc1`, the inhibition at 10 µM in the assay on HL-60 [1] was ~0%. In the assay with HL-60 [2], the inhibition at 3 µM was ~0%. Also, the inhibition at 6 µM in the assay with HL-60 [3] was ~0%.

In the assay on HL-60 [1], `CC(C)c1cccc(C(C)C)c1N1C(=O)c2ccc([N+](=O)[O-])cc2C1=O` had an inhibition at 10 µM of 16%. Moreover, the inhibition at 3 µM in the assay with HL-60 [2] was ~0%. Further, the Inhibition in the assay filed under Sus scrofa was <10%. Besides, the inhibition at 6 µM in the assay with HL-60 [3] was < 5%.

`Cc1cccc(C)c1N1C(=O)c2ccc(O)cc2C1=O`: at 10 µM the inhibition in the assay with HL-60 [1] was 6%. Besides, the inhibition at 3 µM with HL-60 [2] was ~0%. Also, the Inhibition in the assay listed under Sus scrofa was <10%. The inhibition at 6 µM in the assay with HL-60 [3] was ~0%.

As for `Cc1cccc(C)c1N1C(=O)c2ccccc2C1=O`, in the assay with HL-60 [1], the inhibition at 10 µM was ~0%. Moreover, the inhibition at 3 µM with HL-60 [2] is ~0%. The inhibition at 6 µM with HL-60 [3] is ~0%.

`CC(C)c1cccc(C(C)C)c1N1C(=O)c2cccc(N)c2C1=O`: the inhibition at 10 µM in the assay on HL-60 [1] is ~0%. The inhibition at 3 µM with HL-60 [2] was ~0%. For the same compound, the Inhibition in the assay filed under Sus scrofa is given as <10%. Further, the inhibition at 6 µM in the assay on HL-60 [3] was ~0%.

On to `CC(C)c1cccc(C(C)C)c1N1C(=O)c2cccc(O)c2C1=O`, for which the inhibition at 10 µM in the assay on HL-60 [1] is 8%. Further, in the assay with HL-60 [2], the inhibition at 3 µM was ~0%. Moreover, the Inhibition in the assay listed under Sus scrofa was found to be 7%. Moreover, the inhibition at 6 µM with HL-60 [3] is ~0%.

For `CC(C)c1cccc(C(C)C)c1N1C(=O)c2ccc(N)cc2C1=O`, the inhibition at 10 µM with HL-60 [1] is 23%. Besides, the inhibition at 3 µM in the assay on HL-60 [2] was ~0%. Also, the Inhibition in the assay filed under Sus scrofa was determined as 81%. Further, the inhibition at 6 µM with HL-60 [3] is < 5%.

In the assay listed under Sus scrofa, `COc1cc2c(c(OC)c1OC)-c1ccc(OC)c(=O)cc1[C@@H](NC(C)=O)CC2` [COLCHICINE] returned an Inhibition of 78%.

With `O=C1c2ccccc2C(=O)N1c1ccccc1` [N-PHENYL-PHTHALIMIDE], the inhibition at 10 µM in the assay with HL-60 [1] is ~0%. In addition, the inhibition at 3 µM in the assay on HL-60 [2] was ~0%. In addition, the inhibition at 6 µM in the assay on HL-60 [3] is ~0%.

The values are drawn from ChEMBL document CHEMBL1140361, “Tubulin-polymerization inhibitors derived from thalidomide” (2005).
